Test results reported in patent US20250188032A1, “NITROGEN-CONTAINING HETEROCYCLIC COMPOUNDS AND USES THEREOF” (BNH RESEARCH CO., LTD., priority 2022, published 2025).
“And” between values parts separate entries of the source, which are not always exact repeats. Equal values may be shown once.

What was measured:
293T cells = test: Cytotoxicity test (CCK-8 cell viability) in 293T cells; assay type: cell-based, human; details: 24 hours co-incubation, 293T cell line, % of control
Method: Human undifferentiated neuroblastoma cell line SH-SY5Y and human embryonic kidney cell line (HEK)-293T were purchased from Korean Cell Line Bank (Korea) and Takara (Japan), respectively. Cells were grown in HyClone Minimal Essential Medium (MEM) and Dulbecco's Modified Eagle Medium (DMEM), respectively, supplemented with 10% (v/v) fetal bovine serum (FBS), penicillin (100 U/mL), and streptomycin ([…]). Cells were maintained in a humidified atmosphere of 95% air and 5% CO2 at 37° C. Cells were passaged 10 times at maximum. Cells were dissociated using 0.05% trypsin-EDTA solution and the cells were seeded in new culture dishes for maintenance.
To examine the cytotoxicity of compounds described herein in human cell lines, SH-SY5Y and 293T cells were used. Approximately 8,000 cells (for 293T) and 15,000 cells (for SH-SY5Y) were plated per well of a 96-well plate (SPL Life Sciences Co., Ltd., Pocheon, Korea). After incubating at 37° C. for 24 hours in a humidified atmosphere containing 5% CO2, the culture medium was replaced by a series of concentrations of test compounds diluted in the corresponding culture medium. The time of co-incubation was 24 hours and six replicates were made for each measurement. Finally, 10 μL of CCK-8 reagent (Dojindo Laboratories, Rockville, MD) was added to each well, and after incubation at 37° C. for 3 minutes, the OD at 450 nm was measured using a multifunction microplate reader (Tecan Infinite M200 Pro). These measurements were compared to that of a control and expressed as a percentage of the control to calculate cell viability. The IC50 value was calculated using SPSS software. To do this, the absorbance of the blank wells with only growth medium is subtracted from the values or the wells with cells. The readout value of background (vehicle) was set as a 100% viability, and then the percent viability for each test solution was calculated.
Cell viability (%)=[(As-Ab)/(Ac-Ab)]×100
The data was presented as the mean value and standard error of the mean (S.E.M.). Statistical analysis was performed with the one-way ANOVA with Tukey's post hoc test (GraphPad Prism 5 software package, version 5.02, GraphPad Software Inc. USA). Significance was accepted at p<0.05.

GluN2B = test: Western blot of GluN2B protein in cultured fetal cortical cells; assay type: cell-based, mice; details: for GluN2B expression, Western blot results, Mean: relative value, vehicle set to 1, treated for 24 hours, N 3 or more; for Effect on GluN2B expression compared to the vehicle: comment on Table 6
Method: The amount of GluN2B reacted with the compound of the present disclosure was measured using Western blot. The fetal cerebral cortex was extracted from mice at 17 days of gestation, dissociated into single cells, cultured for 13 days, and treated with BnH drugs for 24 hours. The drug-treated cells were subjected to protein lysate preparation using RIPA protein lysis buffer containing protease and phosphatase inhibitors. The protein concentration was determined using a BCA protein assay kit (Pierce Biotechnology) using bovine serum albumin as a standard. Equal amounts of protein (20 μg per lane) were separated by electrophoresis on SDS-polyacrylamide gels at 90 V for 2 hours, then transferred from the SDS-polyacrylamide gel to PVDF membrane at 100 V for 1 hour. Then, primary reaction with GluN2B antibody (ab65783, Abcam) was performed at 4° C. for 1 day, washed three times at 10-minutes intervals with 1×PBT, and secondary reaction was performed with anti-mouse antibody (sc-2357, Santa Cruz) for 1 hour, followed by washing three times at 10-minutes intervals with 1×PBT. Western blotting was performed as described above to confirm GluN2B protein expression. Subsequently, each blot was re-probed using anti-β-actin antibody (sc-47778, Santa Cruz). Housekeeping protein β-actin was detected as a normalization control.
The increase and decrease of BnH12 series were confirmed by setting the vehicle to 1 (N for each group was 3 or more).
Using the experimental procedure described in Example 3, it was determined whether various BnH12 series compounds increase GluN2B expression, and the results are shown in Table 6. These in vitro experimental results are expressed as relative values to the group (vehicle) that was not treated with the compound, with the effect of the group set to 1.

Row | SMILES | Cell viability test results (CCK) 10 uM (293T cells) | Cell viability test results (CCK) 100 uM (293T cells) | GluN2B expression, Western blot results, Mean (GluN2B) | Effect on GluN2B expression compared to the vehicle (GluN2B)
1 | C[C@H]1CCCCN1C(=O)Cc1ccc(F)cc1Cl [BnH12005, (S)-2-(2-chloro-4-fluorophenyl)-1-(2-methylpiperidin-1-yl)ethan-1-one] | 99%< | 90%< | 1.206 | 
2 | C[C@H]1CC[C@@H](C(=O)O)CN1C(=O)CC1CCCCC1 [BnH12006, (3R,6S)-1-(2-cyclohexylacetyl)-6-methylpiperidine-3-carboxylic acid] | 99%< | 95%< | 1.238 | 
3 | C[C@H]1CC[C@@H](C(=O)O)CN1C(=O)Cc1ccccc1 [BnH12007, (3R,6S)-6-methyl-1-(2-phenylacetyl)piperidine-3-carboxylic acid] | 95%< | 95%< | 1.311 | 
4 | C[C@H]1CC[C@@H](C(=O)NO)CN1C(=O)Cc1ccc(F)cc1Cl [BnH12009, (3R,6S)-1-(2-(2-chloro-4-fluorophenyl)acetyl)-N-hydroxy-6-methylpiperidine-3-carboxamide] | 95%< | 90%< | 1.248 | 
5 | C[C@H]1CC[C@@H](C(=O)O)CN1CCc1ccc(F)cc1Cl [BnH12010, (3R,6S)-1-(2-chloro-4-fluorophenethyl)-6-methylpiperidine-3-carboxylic acid] |  |  | 1.074 | 
6 | O=C(NO)[C@@H]1CCCN1C(=O)Cc1ccc(F)cc1Cl [BnH12016, (S)-1-(2-(2-chloro-4-fluorophenyl)acetyl)-N-hydroxypyrrolidine-2-carboxamide] | 99%< | 90%< | 1.311 | 
7 | O=C(NO)[C@H]1CCCN1C(=O)c1ccccc1 [BnH12018, (R)-1-benzoyl-N-hydroxypyrrolidine-2-carboxamide] | 90%< | 90%< | 1.381 | excellent effects
8 | COc1ccc(CC(=O)N2C[C@H](C(=O)O)CC[C@@H]2C)cc1 [BnH12025, (3R,6S)-1-(2-(4-methoxyphenyl)acetyl)-6-methylpiperidine-3-carboxylic acid] | 90%< | 80%< | 1.582 | excellent effects
9 | C[C@H]1CC[C@@H](C(=O)[O-])CN1C(=O)Cc1cccnc1.[Na+] [BnH12038, Sodium (3R,6S)-6-methyl-1-(2-(pyridin-3-yl)acetyl)piperidine-3-carboxylate] | 85%< | 85%< | 1.811 | excellent effects
10 | C[C@H]1CC[C@@H](C(=O)[O-])CN1C(=O)Cc1ccccn1.[Na+] [BnH12039, Sodium (3R,6S)-6-methyl-1-(2-(pyridin-2-yl)acetyl)piperidine-3-carboxylate] | 95%< | 90%< | 1.103 | 
11 | C[C@H]1CCCCN1C(=O)Cc1cccnc1 [BnH12060, (S)-1-(2-methylpiperidin-1-yl)-2-(pyridin-3-yl)ethan-1-one] | 99%< | 99%< | 1.469 | excellent effects
12 | C[C@H]1CCCCN1C(=O)Cc1ccccc1 [BnH12061, (S)-1-(2-methylpiperidin-1-yl)-2-phenylethan-1-one] | 95%< | 95%< | 1.683 | excellent effects
13 | COc1ccc(CC(=O)N2C[C@@H](C(=O)O)CC[C@H]2C)cc1 [BnH12063, (3S,6R)-1-(2-(4-methoxyphenyl)acetyl)-6-methylpiperidine-3-carboxylic acid] | 95%< | 95%< | 1.652 | excellent effects
14 | C[C@H]1CC[C@@H](C(=O)O)CN1C(=O)c1ccccc1 [BnH12065, (3R,6S)-1-benzoyl-6-methylpiperidine-3-carboxylic acid] | 95%< | 95%< | 1.326 | 
15 | C[C@@H]1CC[C@H](C(=O)[O-])CN1C(=O)Cc1cccnc1.[Na+] [BnH12068, Sodium (3S,6R)-6-methyl-1-(2-(pyridin-3-yl)acetyl)piperidine-3-carboxylate] |  |  | 1.286 | 
16 | C[C@H]1CC[C@@H](C(=O)O)CN1C(=O)Cc1ccc([N+](=O)[O-])cc1 [BnH12069, (3R,6S)-6-methyl-1-(2-(4-nitrophenyl)acetyl)piperidine-3-carboxylic acid] | 95%< and 80%< | 95%< and 80%< | 1.993 | excellent effects
17 | C[C@H]1CC[C@@H](C(=O)O)CN1C(=O)Cc1ccc(N)cc1 [BnH12070, (3R,6S)-1-(2-(4-aminophenyl)acetyl)-6-methylpiperidine-3-carboxylic acid] | 99%< | 90%< | 1.302 | 
18 | C[C@H]1CC[C@@H](C(=O)O)CN1C(=O)Cc1cccc([N+](=O)[O-])c1 [BnH12073, (3R,6S)-6-methyl-1-(2-(3-nitrophenyl)acetyl)piperidine-3-carboxylic acid] | 85%< | 85%< | 2.013 | excellent effects
19 | C[C@H]1CC[C@@H](C(=O)O)CN1C(=O)Cc1cccc(N)c1 [BnH12074, (3R,6S)-1(2-(3-aminophenyl)acetyl)-6-methylpiperidine-3-carboxylic acid] | 85%< | 80%< | 2.146 | excellent effects
20 | C[C@H]1CC[C@@H](C(=O)O)CN1C(=O)Cc1ccc(O)cc1 [BnH12079, (3R,6S)-1-(2-(4-hydroxyphenyl)acetyl)-6-methylpiperidine-3-carboxylic acid] | 99%< | 90%< | 1.062 | 
21 | CC(C)C1CCC(C(=O)O)CN1C(=O)Cc1ccc(F)cc1Cl (stereo not drawn) [BnH12096, 1-(2-(2-chloro-4-fluorophenyl)acetyl)-6-isopropylpiperidine-3-carboxylic acid] | 70%< | 65%< | 2.848 | excellent effects
